From ChEMBL document CHEMBL1121926, “Adriamycin analogues. Preparation and antitumor evaluation of 7-O-(beta-D-glucosaminyl)daunomycinone and 7-O-(beta-D-glucosaminyl)adriamycinone and their N-trifluoroacetyl derivatives” (1982)

Experiments:
Assay type in all cases: functional
Mus musculus [1] = assay: Percent increase in life span was calculated against L1210 murine leukemia cells in BDF1 male mice at the specified in vivo dose of 120(mg/kg)/day.
Mus musculus [2] = assay: Median day of death was calculated against L1210 murine leukemia cells in BDF1 male mice at the specified in vivo dose of 120(mg/kg)/day
Mus musculus [3] = assay: Percent increase in life span was calculated against L1210 murine leukemia cells in BDF1 male mice at the specified in vivo dose of 3.5(mg/kg)/day.
Mus musculus [4] = assay: Median day of death was calculated against L1210 murine leukemia cells in BDF1 male mice at the specified in vivo dose of 3.5(mg/kg)/day
Mus musculus [5] = assay: Percent increase in life span was calculated against L1210 murine leukemia cells in BDF1 male mice at the specified in vivo dose of 90(mg/kg)/day.
Mus musculus [6] = assay: Median day of death was calculated against L1210 murine leukemia cells in BDF1 male mice at the specified in vivo dose of 90(mg/kg)/day

With COc1cccc2c1C(=O)c1c(O)c3c(c(O)c1C2=O)C[C@@](O)(C(=O)CO)C[C@@H]3OC1OC(CO)C(O)C(O)C1N (stereo partly specified) the Increase in life-span (Mus musculus [1]) was 40% and the “Median day of death” value (Mus musculus [2]) was 14.
In the case of COc1cccc2c1C(=O)c1c(O)c3c(c(O)c1C2=O)C[C@@](O)(C(=O)CO)C[C@@H]3O[C@H]1C[C@H](N)[C@H](O)[C@H](C)O1 [DOXORUBICIN], the Increase in life-span (Mus musculus [3]) is reported as 40% and the “Median day of death” value (Mus musculus [4]) is reported as 14.
For COc1cccc2c1C(=O)c1c(O)c3c(c(O)c1C2=O)C[C@@](O)(C(C)=O)C[C@@H]3O[C@@H]1O[C@H](CO)[C@@H](O)[C@H](O)[C@H]1N, the Increase in life-span (Mus musculus [5]) was 60% and the “Median day of death” value (Mus musculus [6]) was 16.
